Experimental data taken from US20140256664A1, “COMPOSITIONS AND METHODS FOR A MYCOBACTERIUM TUBERCULOSIS DRUG SUSCEPTIBILITY TEST” (priority 2011, published 2014).
“And” between values parts separate entries of the source, which are not always exact repeats. Equal values may be shown once. Where a name gives a salt, the structure may show the parent alone. Read-outs that look alike come from different tables or passages of the source.

Legend:
Format in all cases: cell-based, Mycobacterium tuberculosis
M. tuberculosis isolates [1] = tested on: M. tuberculosis isolates
[2] = tested on: 33 isolates of M. tuberculosis
M. tuberculosis isolates [3] = tested on: M. tuberculosis isolates; remark: listed apart in the source
[4] = tested on: clinical MDR strain (INH, RIF, EMB, STR resistant)

| Compound | D29 phage assay Resistant (n isolates) [2] | D29 phage assay susceptible (n isolates) [2] | ΔCt of D29 phage assay resistant isolates [2] | Agar proportion Resistant (n isolates) (M. tuberculosis isolates [3]) | Agar proportion susceptible (n isolates) (M. tuberculosis isolates [3]) | number of phage / real-time PCR Ct value after drug pre-treatment [4] | other results |
| --- | --- | --- | --- | --- | --- | --- | --- |
| NCC[C@H](O)C(=O)N[C@@H]1C[C@H](N)[C@@H](O[C@H]2O[C@H](CN)[C@@H](O)[C@H](O)[C@H]2O)[C@H](O)[C@H]1O[C@H]1O[C@H](CO)[C@@H](O)[C@H](N)[C@H]1O [Amikacin, amikacin] | 1(−2.9) and 1(2.4) | 0 | 1(−2.9) and 1(2.4) | 1(16) and 1(8) | 0 | – | MIC of agar proportion resistant isolates (M. tuberculosis isolates [1]): 1(16) μg/ml and 1(8) μg/ml; D29 phage assay Resistant (n isolates) ([2]; listed as AMK): 0; Agar proportion Resistant (n isolates) (M. tuberculosis isolates [3]; listed as AMK): 0 |
| CC[C@@H](CO)NCCN[C@@H](CC)CO [Ethambutol, ethambutol hydrochloride] | – | – | – | – | – | – | D29 phage assay Resistant (n isolates) ([2]; listed as EMB, hydrochloride): 0; Agar proportion Resistant (n isolates) (M. tuberculosis isolates [3]; listed as EMB, hydrochloride): 0 |
| NNC(=O)c1ccncc1 [Isoniazid, isoniazid] | – | 0 | – | – | 0 | the phage number increased/Ct value decreased | D29 phage assay Resistant (n isolates) ([2]; listed as INH): 1 and 2 |
| CO[C@H]1/C=C/O[C@@]2(C)Oc3c(C)c(O)c4c(O)c(c(/C=N/N5CCN(C)CC5)c(O)c4c3C2=O)NC(=O)/C(C)=C\C=C\[C@H](C)[C@H](O)[C@@H](C)[C@@H](O)[C@@H](C)[C@H](OC(C)=O)[C@@H]1C [Rifampin, rifampin] | – | 0 | – | – | 0 | the phage number increased/Ct value decreased | ΔCtRIF (Ct control−Ct drug) ([4]; […], drug, Tb inoculum and phage added at once, 24 h): −1 |
| capreomycin sulfate | 1(−5.4) and 1(−3.3) | 0 | 1(−5.4) and 1(−3.3) | 1(ND) | 0 | – | D29 phage assay Resistant (n isolates) ([2]; listed as CAP): 1; ΔCt of D29 phage assay resistant isolates ([2]; listed as CAP): −5.4; Agar proportion Resistant (n isolates) (M. tuberculosis isolates [3]; listed as CAP): 0 |
